Converted amounts (≈) assume the structure as drawn. Read-outs that look alike come from different tables or passages of the source.
Columns and labels:
[1] = Pharmacokinetic study of the compounds in SD rat (intravenous injection); type: in vivo, SD male rats
Procedure: Test drugs: the compound 1, 6, 8 and 9 prepared in the examples
Control drugs: Meropenem (Meropenem for injection), commercially available; Doripenem (Doripenem for Injection).
Internal standard substance: Warfarin, a white powder, purity 99%, batch number: 0072-8501, provided by Shanghai Institute for Drug Control.
Drug formulation: the test drugs were formulated before use by being dissolved in physiological saline to make a final concentration of 5 mg/mL for intravenous injection.
Test animal: SD male rats, weight: 200˜250 g, purchased from SHANGHAI SLAC LABORATORY ANIMAL CO. LTD.
Drug administration: The SD male rats were randomly divided into five groups with 3 in each group, and given the drugs by intravenous injection at a dose of 10 mg/kg. The animals were weighed before administration.
Collection of Samples: Zero time was marked before administration; 0.5 mL of blood was respectively sampled from orbit venous plexus at 5 min, 15 min, 30 min, 45 min, 1 h, 2 h, 4 h, 6 h, 8 h, 24 h after administration into heparinized centrifuge tubes. The samples were centrifuged for 6 minutes at 8000 rpm and the supernatant plasma was separated. The plasma was frozen at −20° C. for LC-MS/MS analysis.
Chromatographic conditions: column: Gemini C6-Phenyl (50 mm×4.6 mm, 5 μm); mobile phase: 0.1% of formic acid-water-acetonitrile (5:35:60, v/v/v); flow rate: 1 mL/min; column temperature: 35-40° C.; injection volume: 5 μL; split ratio: 1/5.
Mass spectrometer conditions: scanning mode: cation multiple reactions monitoring (MRM); ion source: electrospray ionization (ESI); Nebulize gas: 8 L/min; Curtain gas: 8 L/min; Collision gas: 4 L/min; Ionspray voltage: 4500 v; Temperature: 400° C./500° C.
Preparation of the Standard Curve and Quality-Control Sample: a Suitable Amount of the test drug was weighed precisely and then formulated into a stock solution (2.6 mg/mL) with ultrapure water. The stock solution was diluted with methanol to obtain a series of working solutions in a concentration of 25000, 5000, 2500, 500, 250 and 50 ng/mL, respectively. 100 μL of plasma samples were separately added into 20 μL of said working solutions to obtain the calibration solutions in a concentration of 5000, 1000, 500, 100, 50 and 10 ng/mL. By the same method, the quality-controlled sample solutions in a concentration of 4000, 800 and 20 ng/mL can be prepared. A standard curve was obtained by chromatographic analysis of the samples.
Sample preparation: 20 μL of acetonitrile and 200 μL (200 ng/mL) of Warfarin in acetonitrile were added into 100 μL of plasma sample, then spun for 1 minute and centrifuged for 5 minutes at 15000 rpm. 100 μL of the supernatant was taken, where 3 μL aliquot of the supernatant was used for the LC/MS/MS analysis.
Dosing concentration: The accuracy of the drug concentration in dosing solution for intravenous injection was 103.2%, determined by analysis of the formulated drugs using HPLC and comparison with the standards.
Data analysis: The drug concentration in plasma would be considered as zero if under the detection limit (10 ng/mL). The pharmacokinetics parameters were calculated by the non-compartment model using Winnonlin Professional 5.2 pharmacokinetics software.
Pharmacokinetics: The pharmacokinetics parameters and drug concentration-time curve were obtained by measuring the plasma drug concentration at different time points.

Serratia marcescens = experiment: In vitro antibacterial activity, agar dilution method (clinical isolates); type: cell-based; conditions: read-out: MIC90 Serratia marcescens
Description: (§1) Bacterial strains for test: All the bacterial strains are clinical isolates and purchased from public organizations. methicillin-sensitive staphylococcus aureus (MS SA), methicillin-resistant staphylococcus aureus (MRSA), methicillin-sensitive staphylococcus epidermidis (MSSE), methicillin-resistant staphylococcus epidermidis (MRSE), streptococcus pyogenes, penicillin-sensitive streptococcus pneumoniae (PSSP), penicillin-resistant streptococcus pneumoniae (PRSP), Escherichia coli, Citrobacter freundii, Enterobacter cloacae, Hemophilus influenza, Klebsiella pneumonia (producing ESBL), Morganella morganii, Proteus mirabilis, Serratia marcescens, and Pseudomonas aeruginosa.
(§2) Drugs to be tested: compounds of the invention prepared in the examples; the chemical names, structural formulae, preparation materials, and preparation methods are provided in the preparation examples of the compounds;
(§3) Meropenem (Meropenem for injection), Ertapenem (Ertapenem for injection), and Doripenem (Doripenem for injection) commercially available
(§4) Experimental method: the agar dilution method, by reference to Methodology of Pharmacological Experiment (XU Shuyun et al, published by the Peoples Medical Publishing House, 1st Edition, August, 1982; 3rd Edition, 5th printing, January 2002, p 1659-1660).

[2] = test system: methicillin-resistant staphylococcus aureus (MRSA); experiment: as above; type: cell-based; conditions: clinically isolated strains, Gram-positive, read-out: MIC90 S. aureus MRSA
Description: as §1, §2, §3, §4

Hemophilus influenza = experiment: as above; type: cell-based; conditions: read-out: MIC90 Hemophilus influenza
Description: as §1, §2, §3, §4

streptococcus pyogenes = experiment: as above; type: cell-based; conditions: clinically isolated strains, Gram-positive, read-out: MIC90 S. pyogenes
Description: as §1, §2, §3, §4

Proteus mirabilis = experiment: as above; type: cell-based; conditions: clinically isolated strains, Gram-negative, agar dilution, read-out: MIC90 Proteus mirabilis
Description: as §1, §2, §3, §4

[3] = test system: methicillin-sensitive staphylococcus aureus (MSSA); experiment: as above; type: cell-based; conditions: read-out: MIC90 S. aureus MSSA
Description: as §1, §2, §3, §4

[4] = test system: Klebsiella pneumonia (producing ESBL); experiment: as above; type: cell-based; conditions: Klebsiella pneumoniae; clinically isolated strains (producing ESBL), Gram-negative, agar dilution; read-out: MIC90 Klebsiella pneumonia
Description: as §1, §2, §3, §4

[5] = test system: methicillin-resistant staphylococcus epidermidis (MRSE); experiment: as above; type: cell-based; conditions: clinically isolated strains, Gram-positive, read-out: MIC90 S. epidermidis MRSE
Description: as §1, §2, §3, §4

Morganella morganii = experiment: as above; type: cell-based; conditions: clinically isolated strains, Gram-negative
Description: as §1, §2, §3, §4

[6] = test system: penicillin-sensitive streptococcus pneumoniae (PSSP); experiment: as above; type: cell-based; conditions: clinically isolated strains, Gram-positive, read-out: MIC90 S. pneumoniae PSSP
Description: as §1, §2, §3, §4

Escherichia coli = experiment: as above; type: cell-based; conditions: clinically isolated strains, Gram-negative, read-out: MIC90 E. coli
Description: as §1, §2, §3, §4

Citrobacter freundii = experiment: as above; type: cell-based; conditions: clinically isolated strains, Gram-negative
Description: as §1, §2, §3, §4

Pseudomonas aeruginosa = experiment: as above; type: cell-based; conditions: clinically isolated strains, Gram-negative
Description: as §1, §2, §3, §4

[7] = test system: penicillin-resistant streptococcus pneumoniae (PRSP); experiment: as above; type: cell-based; conditions: clinically isolated strains, Gram-positive, read-out: MIC90 S. pneumoniae PRSP
Description: as §1, §2, §3, §4

[8] = test system: methicillin-sensitive staphylococcus epidermidis (MSSE); experiment: as above; type: cell-based; conditions: read-out: MIC90 S. epidermidis MSSE
Description: as §1, §2, §3, §4

Enterobacter cloacae = experiment: as above; type: cell-based; conditions: read-out: MIC90 Enterobacter cloacae
Description: as §1, §2, §3, §4

[9] = cited from earlier work
[10] = in vivo, SD male rats, intravenous injection 10 mg/kg, plasma, X ± SD, n = 3, read-out: t1/2 (half lives) (converted)
[11] = clinically isolated strains, Gram-negative, agar dilution
[12] = clinically isolated strains, Gram-positive, agar dilution

Row | Structure (SMILES) | half-life [1, 10] [min] | MIC90 [2] [µg/mL] | MIC90 (Hemophilus influenza; [11]) [µg/mL] | MIC90 (streptococcus pyogenes) [µg/mL] | MIC90 (Proteus mirabilis) [µg/mL] | MIC90 [4] [µg/mL] | MIC90 [5] [µg/mL] | MIC90 (Morganella morganii) [µg/mL] | MIC90 [6] [µg/mL] | MIC90 (Escherichia coli) [µg/mL] | MIC90 (Citrobacter freundii) [µg/mL] | MIC90 (Pseudomonas aeruginosa) [µg/mL] | MIC90 [7] [µg/mL] | half-lives in human body [9] | MIC90 (Serratia marcescens; [11]) [µg/mL] | MIC90 (Hemophilus influenza) [µg/mL] | MIC90 [3, 12] [µg/mL] | MIC90 [8, 12] [µg/mL] | MIC90 (Enterobacter cloacae; [11]) [µg/mL] | also measured
1 | C[C@@H](O)[C@H]1C(=O)N2C(C(=O)O)=C(SC3CN(S(=O)(=O)NCC(O)CN)C3)[C@H](C)[C@H]12 (stereo partly drawn) [Compound 9, (4R,5S,6S)-3-[1-(2-hydroxy-3-aminopropylaminosulfonyl)-azetidin-3-yl]thio-6-[(1R)-1-hydroxyethyl]-4-methyl-7-oxo-1-aza-bicyclo-[3.2.0]-hept-2-ene-2-carboxylic acid] | 19.2 ± 3.6 | – | – | – | – | – | – | – | – | – | – | – | – | – | – | – | – | – | – | –
2 | CCCCN(CCCC)S(=O)(=O)N1CC(SC2=C(C(=O)O)N3C(=O)[C@H]([C@@H](C)O)[C@H]3[C@H]2C)C1 [Compound 8, (4R,5S,6S)-3-[1-(N,N-dibutylaminosulfonyl)-azetidin-3-yl]thio-6-[(1R)-1-hydroxyethyl]-4-methyl-7-oxo-1-aza-bicyclo-[3.2.0]hept-2-ene-2-carboxylic acid] | 16.2 ± 1.8 | 8 (≈ 16.3 µM) | 0.125 (≈ 0.255 µM) | 0.004 (≈ 0.00817 µM) | 0.063 (≈ 0.129 µM) | 0.032 (≈ 0.0654 µM) | 8 (≈ 16.3 µM) | 0.032 (≈ 0.0654 µM) | 0.004 (≈ 0.00817 µM) | 0.016 (≈ 0.0327 µM) | 0.016 (≈ 0.0327 µM) | 8 (≈ 16.3 µM) | 1 (≈ 2.04 µM) | – | – | – | – | – | – | MIC90 (Serratia marcescens): 0.125 µg/mL (≈ 0.255 µM); MIC90 [3]: 0.125 µg/mL (≈ 0.255 µM); MIC90 [8]: 0.125 µg/mL (≈ 0.255 µM); MIC90 (Enterobacter cloacae): 0.125 µg/mL (≈ 0.255 µM)
3 | C[C@@H](O)[C@H]1C(=O)N2C(C(=O)O)=C(S[C@@H]3CN[C@H](CNS(N)(=O)=O)C3)[C@H](C)[C@H]12 [doripenem, Doripenem, reference compound] | – | 16 (≈ 38 µM) | – | 0.008 (≈ 0.019 µM) | 0.5 (≈ 1.19 µM) | 0.125 (≈ 0.297 µM) | 16 (≈ 38 µM) | 0.063 (≈ 0.15 µM) | 0.016 (≈ 0.038 µM) | 0.063 (≈ 0.15 µM) | 0.063 (≈ 0.15 µM) | 8 (≈ 19 µM) | 1 (≈ 2.38 µM) | about 1 h | 0.25 (≈ 0.595 µM) | 0.5 (≈ 1.19 µM) | 0.125 (≈ 0.297 µM) | 0.125 (≈ 0.297 µM) | 0.025 (≈ 0.0595 µM) | half-life ([1]; male, SD, in vivo, iv, 10 mg/kg): 6.6 ± 0.6 min
4 | C[C@@H](O)[C@H]1C(=O)N2C(C(=O)O)=C(SC3CN(S(=O)(=O)N(C)C)C3)[C@H](C)[C@H]12 [Compound 6, (4R,5S,6S)-3-[1-(N,N-dimethylaminosulfonyl)-azetidin-3-yl]-thio-6-[(1R)-1-hydroxyethyl]-4-methyl-7-oxo-1-aza-bicyclo-[3.2.0]hept-2-ene-2-carboxylic acid] | 18 ± 1.8 | 8 (≈ 19.7 µM) | 0.25 (≈ 0.617 µM) | 0.008 (≈ 0.0197 µM) | 0.063 (≈ 0.155 µM) | 0.125 (≈ 0.308 µM) | 16 (≈ 39.5 µM) | 0.063 (≈ 0.155 µM) | 0.004 (≈ 0.00986 µM) | 0.016 (≈ 0.0395 µM) | 0.063 (≈ 0.155 µM) | 16 (≈ 39.5 µM) | 1 (≈ 2.47 µM) | – | 0.063 (≈ 0.155 µM) | – | 0.063 (≈ 0.155 µM) | 0.063 (≈ 0.155 µM) | 0.25 (≈ 0.617 µM) | –
5 | C[C@@H](O)[C@H]1C(=O)N2C(C(=O)O)=C(S[C@@H]3CN[C@H](C(=O)N(C)C)C3)[C@H](C)[C@H]12 [meropenem, Meropenem, reference compound] | – | 64 (≈ 167 µM) | 0.25 (≈ 0.652 µM) | 0.008 (≈ 0.0209 µM) | 0.125 (≈ 0.326 µM) | 0.5 (≈ 1.3 µM) | 32 (≈ 83.4 µM) | 0.063 (≈ 0.164 µM) | 0.016 (≈ 0.0417 µM) | 0.032 (≈ 0.0834 µM) | 0.063 (≈ 0.164 µM) | 16 (≈ 41.7 µM) | 1 (≈ 2.61 µM) | about 1 h | 0.125 (≈ 0.326 µM) | – | 0.25 (≈ 0.652 µM) | 0.25 (≈ 0.652 µM) | 1 (≈ 2.61 µM) | half-life ([1]; SD male rats, intravenous injection 10 mg/kg, plasma, X ± SD, n = 3, read-out: t1/2 (half lives) (converted)): 7.2 ± 0.6 min
6 | C[C@@H](O)[C@H]1C(=O)N2C(C(=O)O)=C(SC3CN(S(N)(=O)=O)C3)[C@H](C)[C@H]12 [Compound 1, (4R,5S,6S)-3-[N-aminosulfonyl-azetidin-3-yl]thio-6-[(1R)-1-hydroxyethyl]-4-methyl-7-oxo-1-aza-bicyclo-[3.2.0]hept-2-ene-2-carboxylic acid] | 19.2 ± 1.2 | 4 (≈ 10.6 µM) | – | 0.004 (≈ 0.0106 µM) | 0.63 (≈ 1.67 µM) | 0.032 (≈ 0.0848 µM) | 4 (≈ 10.6 µM) | 0.032 (≈ 0.0848 µM) | 0.008 (≈ 0.0212 µM) | 0.008 (≈ 0.0212 µM) | 0.016 (≈ 0.0424 µM) | 4 (≈ 10.6 µM) | 0.5 (≈ 1.32 µM) | – | 0.063 (≈ 0.167 µM) | 0.063 (≈ 0.167 µM) | 0.032 (≈ 0.0848 µM) | 0.063 (≈ 0.167 µM) | 0.063 (≈ 0.167 µM) | –
